According to PubChem BioAssay AID1919001 (Molecular Pharmacology Branch, DTP, NCI, 2023):

Test system: 699152-130-R-J1-PDC complex spheroid growth
Experiment: Anticancer human tumor 699152-130-R-J1-PDC patient-derived pancreatic carcinoma cell line growth inhibition [AhR]
Conditions: for IC50: curve of first compound; for viability, T/C: stronger effect = lower value; active means viability on the fitted dose curve at most 10% of control; inactive means the rest
Summary of the method: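 Spheroids combined tumor cells with HUVEC endothelial cells and human MSCs as stroma. AhR antagonists were paired with standard or investigational drugs, each dosed in half-log steps down from near clinical Cmax, or from 10 microM where Cmax was unknown.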

[1] = second compound 0.1 µM, first compound 0.0316 µM
[2] = second compound 0.1 µM, first compound 0.1 µM
[3] = second compound 0.1 µM, first compound 0.316 µM
[4] = second compound 0.1 µM, first compound 1 µM
[5] = second compound 0.1 µM, first compound 3.16 µM
[6] = second compound 0.1 µM, first compound 10 µM
[7] = second compound 0.316 µM, first compound 0.0316 µM
[8] = second compound 0.316 µM, first compound 0.1 µM
[9] = second compound 0.316 µM, first compound 0.316 µM
[10] = second compound 0.316 µM, first compound 1 µM
[11] = second compound 0.316 µM, first compound 3.16 µM
[12] = second compound 0.316 µM, first compound 10 µM
[13] = second compound 1 µM, first compound 0.0316 µM
[14] = second compound 1 µM, first compound 0.1 µM
[15] = second compound 1 µM, first compound 0.316 µM
[16] = second compound 1 µM, first compound 1 µM
[17] = second compound 1 µM, first compound 3.16 µM
[18] = second compound 1 µM, first compound 10 µM
[19] = second compound 3.16 µM, first compound 0.0316 µM
[20] = second compound 3.16 µM, first compound 0.1 µM
[21] = second compound 3.16 µM, first compound 0.316 µM
[22] = second compound 3.16 µM, first compound 1 µM
[23] = second compound 3.16 µM, first compound 3.16 µM
[24] = second compound 3.16 µM, first compound 10 µM
[25] = second compound 10 µM, first compound 0.0316 µM
[26] = second compound 10 µM, first compound 0.1 µM
[27] = second compound 10 µM, first compound 0.316 µM
[28] = second compound 10 µM, first compound 1 µM
[29] = second compound 10 µM, first compound 3.16 µM
[30] = second compound 10 µM, first compound 10 µM
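Further: compound exposure lasted 7 days after spheroids had grown for 3 days.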

CC1(C)CCC(CN2CCN(c3ccc(C(=O)NS(=O)(=O)c4ccc(NCC5CCOCC5)c([N+](=O)[O-])c4)c(Oc4cnc5[nH]ccc5c4)c3)CC2)=C(c2ccc(Cl)cc2)C1 + CC(CO)NC(=O)c1cc(-c2ccc(Cl)cc2)nn(-c2cnn(C)c2)c1=O
> 10 µM: IC50 (second compound 0.1 µM) | IC50 (second compound 0.316 µM) | IC50 (second compound 1 µM) | IC50 (second compound 3.16 µM) | IC50 (second compound 10 µM)
inactive: viability, T/C [1] 102% | viability, T/C [2] 119% | viability, T/C [3] 95.8% | viability, T/C [4] 111% | viability, T/C [5] 89.1% | viability, T/C [6] 60.5% | viability, T/C [7] 104% | viability, T/C [8] 109% | viability, T/C [9] 96.5% | viability, T/C [10] 92.2% | viability, T/C [11] 87.1% | viability, T/C [12] 63.1% | viability, T/C [13] 96.2% | viability, T/C [14] 108% | viability, T/C [15] 105% | viability, T/C [16] 102% | viability, T/C [17] 95.4% | viability, T/C [18] 66% | viability, T/C [19] 98% | viability, T/C [20] 100% | viability, T/C [21] 102% | viability, T/C [22] 83% | viability, T/C [23] 96.9% | viability, T/C [24] 65% | viability, T/C [25] 90.8% | viability, T/C [26] 91.3% | viability, T/C [27] 97.5% | viability, T/C [28] 84.2% | viability, T/C [29] 84.4% | viability, T/C [30] 73.7%

CCN(c1cc(-c2ccc(CN3CCOCC3)cc2)cc(C(=O)NCc2c(C)cc(C)[nH]c2=O)c1C)C1CCOCC1 + CC(CO)NC(=O)c1cc(-c2ccc(Cl)cc2)nn(-c2cnn(C)c2)c1=O
> 3 µM: IC50 (second compound 0.1 µM) | IC50 (second compound 0.316 µM) | IC50 (second compound 1 µM) | IC50 (second compound 3.16 µM) | IC50 (second compound 10 µM)
inactive: viability, T/C (second compound 0.1 µM, first compound 0.00949 µM) 97.8% | viability, T/C (second compound 0.1 µM, first compound 0.03 µM) 105% | viability, T/C (second compound 0.1 µM, first compound 0.0949 µM) 99.2% | viability, T/C (second compound 0.1 µM, first compound 0.3 µM) 96.2% | viability, T/C (second compound 0.1 µM, first compound 0.949 µM) 100% | viability, T/C (second compound 0.1 µM, first compound 3 µM) 102% | viability, T/C (second compound 0.316 µM, first compound 0.00949 µM) 107% | viability, T/C (second compound 0.316 µM, first compound 0.03 µM) 99.4% | viability, T/C (second compound 0.316 µM, first compound 0.0949 µM) 96.6% | viability, T/C (second compound 0.316 µM, first compound 0.3 µM) 94.5% | viability, T/C (second compound 0.316 µM, first compound 0.949 µM) 94.6% | viability, T/C (second compound 0.316 µM, first compound 3 µM) 99.4% | viability, T/C (second compound 1 µM, first compound 0.00949 µM) 105% | viability, T/C (second compound 1 µM, first compound 0.03 µM) 106% | viability, T/C (second compound 1 µM, first compound 0.0949 µM) 108% | viability, T/C (second compound 1 µM, first compound 0.3 µM) 97.3% | viability, T/C (second compound 1 µM, first compound 0.949 µM) 99.4% | viability, T/C (second compound 1 µM, first compound 3 µM) 111% | viability, T/C (second compound 3.16 µM, first compound 0.00949 µM) 97.1% | viability, T/C (second compound 3.16 µM, first compound 0.03 µM) 89.1% | viability, T/C (second compound 3.16 µM, first compound 0.0949 µM) 104% | viability, T/C (second compound 3.16 µM, first compound 0.3 µM) 91.2% | viability, T/C (second compound 3.16 µM, first compound 0.949 µM) 83.6% | viability, T/C (second compound 3.16 µM, first compound 3 µM) 95.1% | viability, T/C (second compound 10 µM, first compound 0.00949 µM) 93.9% | viability, T/C (second compound 10 µM, first compound 0.03 µM) 92.2% | viability, T/C (second compound 10 µM, first compound 0.0949 µM) 95.1% | viability, T/C (second compound 10 µM, first compound 0.3 µM) 85% | viability, T/C (second compound 10 µM, first compound 0.949 µM) 86.5% | viability, T/C (second compound 10 µM, first compound 3 µM) 87.5%

COc1cc(Nc2ncc3c(n2)-c2ccc(Cl)cc2C(c2c(F)cccc2OC)=NC3)ccc1C(=O)O + CC(CO)NC(=O)c1cc(-c2ccc(Cl)cc2)nn(-c2cnn(C)c2)c1=O
> 10 µM: IC50 (second compound 0.1 µM) | IC50 (second compound 0.316 µM) | IC50 (second compound 1 µM) | IC50 (second compound 3.16 µM) | IC50 (second compound 10 µM)
inactive: viability, T/C [1] 92.5% | viability, T/C [2] 79.1% | viability, T/C [3] 78.6% | viability, T/C [4] 65.3% | viability, T/C [5] 63.8% | viability, T/C [6] 62.3% | viability, T/C [7] 97% | viability, T/C [8] 94.4% | viability, T/C [9] 74.5% | viability, T/C [10] 63% | viability, T/C [11] 65.1% | viability, T/C [12] 60.9% | viability, T/C [13] 95% | viability, T/C [14] 84% | viability, T/C [15] 86% | viability, T/C [16] 65.8% | viability, T/C [17] 64.1% | viability, T/C [18] 59.7% | viability, T/C [19] 85% | viability, T/C [20] 76.1% | viability, T/C [21] 85.3% | viability, T/C [22] 59.6% | viability, T/C [23] 60.2% | viability, T/C [24] 56.1% | viability, T/C [25] 78.7% | viability, T/C [26] 85.8% | viability, T/C [27] 83% | viability, T/C [28] 73.1% | viability, T/C [29] 69.7% | viability, T/C [30] 58.9%

Cn1ncnc1C1c2n[nH]c(=O)c3cc(F)cc(c23)NC1c1ccc(F)cc1 (stereo not given) + CC(CO)NC(=O)c1cc(-c2ccc(Cl)cc2)nn(-c2cnn(C)c2)c1=O
inactive: viability, T/C (second compound 0.1 µM, first compound 0.000316 µM) 102% | viability, T/C (second compound 0.1 µM, first compound 0.001 µM) 113% | viability, T/C (second compound 0.1 µM, first compound 0.00316 µM) 104% | viability, T/C (second compound 0.1 µM, first compound 0.01 µM) 108% | viability, T/C [1] 102% | viability, T/C [2] 98.9% | viability, T/C (second compound 0.316 µM, first compound 0.000316 µM) 105% | viability, T/C (second compound 0.316 µM, first compound 0.001 µM) 102% | viability, T/C (second compound 0.316 µM, first compound 0.00316 µM) 120% | viability, T/C (second compound 0.316 µM, first compound 0.01 µM) 103% | viability, T/C [7] 86.2% | viability, T/C [8] 103% | viability, T/C (second compound 1 µM, first compound 0.000316 µM) 101% | viability, T/C (second compound 1 µM, first compound 0.001 µM) 99.3% | viability, T/C (second compound 1 µM, first compound 0.00316 µM) 102% | viability, T/C (second compound 1 µM, first compound 0.01 µM) 101% | viability, T/C [13] 101% | viability, T/C [14] 102% | viability, T/C (second compound 3.16 µM, first compound 0.000316 µM) 91.5% | viability, T/C (second compound 3.16 µM, first compound 0.001 µM) 95.3% | viability, T/C (second compound 3.16 µM, first compound 0.00316 µM) 97.6% | viability, T/C (second compound 3.16 µM, first compound 0.01 µM) 96.9% | viability, T/C [19] 92.9% | viability, T/C [20] 84.2% | viability, T/C (second compound 10 µM, first compound 0.000316 µM) 95.4% | viability, T/C (second compound 10 µM, first compound 0.001 µM) 81.3% | viability, T/C (second compound 10 µM, first compound 0.00316 µM) 91% | viability, T/C (second compound 10 µM, first compound 0.01 µM) 85.5% | viability, T/C [25] 80.1% | viability, T/C [26] 79.5%
> 0.1 µM: IC50 (second compound 0.1 µM) | IC50 (second compound 0.316 µM) | IC50 (second compound 1 µM) | IC50 (second compound 3.16 µM) | IC50 (second compound 10 µM)

NS(=O)(=O)OCC1CC(n2ccc3c(NC4CCc5ccccc54)ncnc32)CC1O (stereo not given) + CC(CO)NC(=O)c1cc(-c2ccc(Cl)cc2)nn(-c2cnn(C)c2)c1=O
inactive: viability, T/C [1] 108% | viability, T/C [2] 127% | viability, T/C [3] 120% | viability, T/C [4] 36.9% | viability, T/C [5] 25.2% | viability, T/C [6] 29.3% | viability, T/C [7] 116% | viability, T/C [8] 132% | viability, T/C [9] 97.2% | viability, T/C [10] 36.8% | viability, T/C [11] 27.5% | viability, T/C [12] 29.1% | viability, T/C [13] 115% | viability, T/C [14] 126% | viability, T/C [15] 91.1% | viability, T/C [16] 30.4% | viability, T/C [17] 23.1% | viability, T/C [18] 31.4% | viability, T/C [19] 114% | viability, T/C [20] 127% | viability, T/C [21] 80.2% | viability, T/C [22] 31.6% | viability, T/C [23] 25.5% | viability, T/C [24] 30.6% | viability, T/C [25] 115% | viability, T/C [26] 104% | viability, T/C [27] 69.5% | viability, T/C [28] 34.1% | viability, T/C [29] 27.1% | viability, T/C [30] 30.8%
0.679 µM: IC50 (second compound 1 µM)
0.602 µM: IC50 (second compound 10 µM)
0.831 µM: IC50 (second compound 0.1 µM)
0.626 µM: IC50 (second compound 3.16 µM)
0.765 µM: IC50 (second compound 0.316 µM)
